Results reported in ChEMBL document CHEMBL5579889, “Structure-Based Design and Development of Phosphine Oxides as a Novel Chemotype for Antibiotics that Dysregulate Bacterial ClpP Proteases” (J Med Chem, 2024).
pEC50: −log10 of the molar value. Values after ≈ are worked out from the molar mass of the structure shown. Active and inactive are the calls of the source. No cut-off for these calls is given here.

Tests used:
Neisseria gonorrhoeae [1] = test: Antibacterial activity against Neisseria gonorrhoeae WHO P measured after 16 to 18 hrs by OD based assay; assay type: functional; conditions: time 16-18 hrs
Neisseria meningitidis [2] = test: Antibacterial activity against Neisseria meningitidis BZ169 measured after 16 to 18 hrs by OD based assay; assay type: functional; conditions: time 16-18 hrs
Neisseria gonorrhoeae [3] = test: Antibacterial activity against Neisseria gonorrhoeae WHO G measured after 16 to 18 hrs by OD based assay; assay type: functional; conditions: time 16-18 hrs
Neisseria meningitidis [4] = test: Antibacterial activity against Neisseria meningitidis AK50 measured after 16 to 18 hrs by OD based assay; assay type: functional; conditions: time 16-18 hrs
Neisseria gonorrhoeae [5] = test: Antibacterial activity against Neisseria gonorrhoeae WHO V measured after 16 to 18 hrs by OD based assay; assay type: functional; conditions: time 16-18 hrs
Neisseria gonorrhoeae [6] = test: Antibacterial activity against Neisseria gonorrhoeae WHO X measured after 16 to 18 hrs by OD based assay; assay type: functional; conditions: time 16-18 hrs
Neisseria gonorrhoeae [7] = test: Antibacterial activity against Neisseria gonorrhoeae FA19 measured after 16 to 18 hrs by OD based assay; assay type: functional; conditions: time 16-18 hrs
Neisseria gonorrhoeae [8] = test: Antibacterial activity against Neisseria gonorrhoeae WHO Z measured after 16 to 18 hrs by OD based assay; assay type: functional; conditions: time 16-18 hrs
Neisseria gonorrhoeae [9] = test: Antibacterial activity against Neisseria gonorrhoeae WHO L measured after 16 to 18 hrs by OD based assay; assay type: functional; conditions: time 16-18 hrs
Neisseria gonorrhoeae [10] = test: Antibacterial activity against Neisseria gonorrhoeae WHO N measured after 16 to 18 hrs by OD based assay; assay type: functional; conditions: time 16-18 hrs
Neisseria meningitidis [11] = test: Antibacterial activity against wild-type Neisseria meningitidis H44/76 measured after 16 to 18 hrs by OD based assay; assay type: functional; conditions: time 16-18 hrs
Neisseria meningitidis [12] = test: Antibacterial activity against Neisseria meningitidis EG329 measured after 16 to 18 hrs by OD based assay; assay type: functional; conditions: time 16-18 hrs
Neisseria meningitidis [13] = test: Antibacterial activity against Neisseria meningitidis NG144/82 measured after 16 to 18 hrs by OD based assay; assay type: functional; conditions: time 16-18 hrs
Neisseria meningitidis [14] = test: Antibacterial activity against Neisseria meningitidis NGF26 measured after 16 to 18 hrs by OD based assay; assay type: functional; conditions: time 16-18 hrs
Neisseria gonorrhoeae [15] = test: Antibacterial activity against Neisseria gonorrhoeae WHO Y measured after 16 to 18 hrs by OD based assay; assay type: functional; conditions: time 16-18 hrs
Neisseria gonorrhoeae [16] = test: Antibacterial activity against Neisseria gonorrhoeae WHO K measured after 16 to 18 hrs by OD based assay; assay type: functional; conditions: time 16-18 hrs
Neisseria gonorrhoeae [17] = test: Antibacterial activity against Neisseria gonorrhoeae MS11 measured after 16 to 18 hrs by OD based assay; assay type: functional; conditions: time 16-18 hrs
Neisseria meningitidis [18] = test: Antibacterial activity against Neisseria meningitidis SWZ107 measured after 16 to 18 hrs by OD based assay; assay type: functional; conditions: time 16-18 hrs
Neisseria meningitidis [19] = test: Antibacterial activity against Neisseria meningitidis 88/03415 measured after 16 to 18 hrs by OD based assay; assay type: functional; conditions: time 16-18 hrs
Neisseria gonorrhoeae [20] = test: Antibacterial activity against Neisseria gonorrhoeae WHO M measured after 16 to 18 hrs by OD based assay; assay type: functional; conditions: time 16-18 hrs
Neisseria meningitidis [21] = test: Antibacterial activity against Neisseria meningitidis NGPB24 measured after 16 to 18 hrs by OD based assay; assay type: functional; conditions: time 16-18 hrs
Neisseria meningitidis [22] = test: Antibacterial activity against Neisseria meningitidis BZ133 measured after 16 to 18 hrs by OD based assay; assay type: functional; conditions: time 16-18 hrs
Neisseria meningitidis [23] = test: Antibacterial activity against Neisseria meningitidis H44/76 harboring deltaclpP measured after 16 to 18 hrs by OD based assay; assay type: functional; conditions: time 16-18 hrs
Streptococcus pneumoniae = test: Activation of recombinant Streptococcus pneumoniae ClpP extracted from Escherichia coli SG1146(DE3) assessed as degradation of casein-FITC at 100 uM preincubated for 10 mins followed by casein addition measured for over 100 mins by fluorescence based assay; conditions: time > 110.0 min
[24] = biological target: ATP-dependent Clp protease proteolytic subunit (Escherichia coli (strain K12), UniProt P0A6G7); test: Activation of N-terminal His-tagged recombinant Escherichia coli ClpP expressed in Escherichia coli SG1146(DE3) assessed as degradation of casein-FITC preincubated for 10 mins followed by casein addition measured for over 100 mins by fluorescence based assay
[25] = biological target: T1, ATP-dependent Clp protease proteolytic subunit (Staphylococcus aureus (strain NCTC 8325)) (UniProt Q2G036); test: Activation of N-terminal His-tagged recombinant Staphylococcus aureus ClpP expressed in Escherichia coli SG1146(DE3) assessed as degradation of casein-FITC at 100 uM preincubated for 10 mins followed by casein addition measured for over 100 mins by fluorescence based assay; conditions: time > 110.0 min
T1 sequence (whole entry): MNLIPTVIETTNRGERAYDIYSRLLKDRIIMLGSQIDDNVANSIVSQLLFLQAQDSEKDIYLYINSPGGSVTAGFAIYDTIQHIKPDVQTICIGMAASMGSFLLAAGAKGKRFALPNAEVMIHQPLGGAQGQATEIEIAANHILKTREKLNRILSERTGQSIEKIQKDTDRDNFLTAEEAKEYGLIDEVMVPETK

[26] = biological target: ATP-dependent Clp protease proteolytic subunit, mitochondrial (Homo sapiens) (UniProt Q16740); test: Activation of N-terminal His-tagged recombinant human ClpP expressed in Escherichia coli SG1146(DE3) assessed as degradation of casein-FITC at 100 uM preincubated for 10 mins followed by casein addition measured for over 100 mins by fluorescence based assay; conditions: time > 110.0 min
[27] = biological target: ATP-dependent Clp protease proteolytic subunit (Neisseria gonorrhoeae, UniProt Q5F914); test: Activation of N-terminal His-tagged recombinant Neisseria gonorrhoeae ClpP expressed in Escherichia coli SG1146(DE3) assessed as degradation of casein-FITC preincubated for 10 mins followed by casein addition measured for over 100 mins by fluorescence based assay
Sequence of ATP-dependent Clp protease proteolytic subunit (Neisseria gonorrhoeae, UniProt Q5F914) (Q5F914 whole entry): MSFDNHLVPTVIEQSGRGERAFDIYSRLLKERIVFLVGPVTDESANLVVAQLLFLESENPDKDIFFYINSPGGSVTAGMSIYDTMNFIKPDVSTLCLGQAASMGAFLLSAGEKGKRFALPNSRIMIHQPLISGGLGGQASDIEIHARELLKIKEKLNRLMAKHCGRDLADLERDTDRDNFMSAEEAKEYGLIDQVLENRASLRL

Sequence of ATP-dependent Clp protease proteolytic subunit (Escherichia coli (strain K12), UniProt P0A6G7) (P0A6G7 whole entry): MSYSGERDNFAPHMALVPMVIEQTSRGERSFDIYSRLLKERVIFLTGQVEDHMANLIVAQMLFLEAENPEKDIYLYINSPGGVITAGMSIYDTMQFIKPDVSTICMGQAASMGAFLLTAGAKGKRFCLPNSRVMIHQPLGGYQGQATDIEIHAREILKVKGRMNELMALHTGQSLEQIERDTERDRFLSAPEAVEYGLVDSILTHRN
Sequence of ATP-dependent Clp protease proteolytic subunit, mitochondrial (Homo sapiens) (Q16740 whole entry): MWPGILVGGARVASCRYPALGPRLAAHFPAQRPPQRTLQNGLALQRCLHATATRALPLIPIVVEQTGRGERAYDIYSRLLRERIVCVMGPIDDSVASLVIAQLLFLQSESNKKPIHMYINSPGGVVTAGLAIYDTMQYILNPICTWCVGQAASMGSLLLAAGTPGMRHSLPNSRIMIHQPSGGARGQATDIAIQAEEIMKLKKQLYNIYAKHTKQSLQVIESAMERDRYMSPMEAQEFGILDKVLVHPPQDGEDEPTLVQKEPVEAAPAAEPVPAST

## CC(C(=O)NCCSc1ccccc1Cl)P(=O)(c1ccccc1)c1ccccc1 (stereo not given)
Neisseria gonorrhoeae [1]
  MIC: 3.1 µM (≈ 1.38 µg/mL)
Neisseria meningitidis [2]
  MIC: 1 µM (≈ 0.444 µg/mL)
Neisseria gonorrhoeae [3]
  MIC: 1.6 µM (≈ 0.71 µg/mL)
Neisseria meningitidis [4]
  MIC: 4.7 µM (≈ 2.09 µg/mL)
Neisseria gonorrhoeae [5]
  MIC: 3.1 µM (≈ 1.38 µg/mL)
Neisseria gonorrhoeae [6]
  MIC: 4.7 µM (≈ 2.09 µg/mL)
Neisseria gonorrhoeae [7]
  MIC: 3.1 µM (≈ 1.38 µg/mL)
Neisseria gonorrhoeae [8]
  MIC: 1.6 µM (≈ 0.71 µg/mL)
Neisseria gonorrhoeae [9]
  MIC: 3.1 µM (≈ 1.38 µg/mL)
Neisseria gonorrhoeae [10]
  MIC: 1.6 µM (≈ 0.71 µg/mL)
Neisseria meningitidis [11]
  MIC: 1 µM (≈ 0.444 µg/mL)
Neisseria meningitidis [12]
  MIC: 1.7 µM (≈ 0.755 µg/mL)
Neisseria meningitidis [13]
  MIC: 0.3 µM (≈ 0.133 µg/mL)
Neisseria meningitidis [14]
  MIC: 1.6 µM (≈ 0.71 µg/mL)
Neisseria gonorrhoeae [15]
  MIC: 12.5 µM (≈ 5.55 µg/mL)
Neisseria gonorrhoeae [16]
  MIC: 1.6 µM (≈ 0.71 µg/mL)
Neisseria gonorrhoeae [17]
  MIC: 3.1 µM (≈ 1.38 µg/mL)
Neisseria meningitidis [18]
  MIC: 0.3 µM (≈ 0.133 µg/mL)
Neisseria meningitidis [19]
  MIC: 1.6 µM (≈ 0.71 µg/mL)
Neisseria gonorrhoeae [20]
  MIC: 1.6 µM (≈ 0.71 µg/mL)
Neisseria meningitidis [21]
  MIC: 3.1 µM (≈ 1.38 µg/mL)
Neisseria meningitidis [22]
  MIC: 2.4 µM (≈ 1.07 µg/mL)
Neisseria meningitidis [23]
  MIC: > 25 µM

## CC(C)(C(=O)NCCSc1ccccc1Br)P(=O)(c1ccc(C(F)(F)F)cc1)c1ccc(C(F)(F)F)cc1
Streptococcus pneumoniae
  Activity: inactive
[24]
  pEC50: 5.14
[25]
  Activity: inactive
[26]
  Activity: inactive
[27]
  pEC50: 5.47

## O=C(CP(=O)(c1ccc(C(F)(F)F)cn1)c1ccc(C(F)(F)F)cn1)NCCSc1ccccc1C(F)(F)F
Streptococcus pneumoniae
  Activity: inactive
[24]
  pEC50: 5.75
[25]
  Activity: inactive
[26]
  Activity: inactive
[27]
  pEC50: 5.31

## CCCC/C=C/C(=O)N[C@@H](Cc1ccccc1)C(=O)N[C@H]1COC(=O)[C@@H]2CCCN2C(=O)[C@H](C)NC(=O)[C@@H]2CCCCN2C(=O)[C@@H]2CCCN2C1=O
Streptococcus pneumoniae
  Activity: inactive
[25]
  Activity: inactive

## CC(C(=O)NCCSc1ccccc1C(F)(F)F)P(=O)(c1ccc(C(F)(F)F)cn1)c1ccc(C(F)(F)F)cn1 (stereo not given)
Streptococcus pneumoniae
  Activity: inactive
[24]
  pEC50: 5.69
[25]
  Activity: inactive
[26]
  Activity: inactive
[27]
  pEC50: 5.56

## CC(C)(C(=O)NCCSc1ccccc1C(F)(F)F)P(=O)(c1ccccn1)c1ccccn1
Streptococcus pneumoniae
  Activity: inactive
[24]
  pEC50: 5.64
[25]
  Activity: inactive
[26]
  Activity: inactive
[27]
  pEC50: 5.29
